Assay [1] relates to ISG gene expression induced by MSA-2 in human THP1-Blue-ISG cells. The assay is described as follows: Inhibition of MSA-2-induced ISG gene expression in human THP1-Blue-ISG cells (Quanti-Blue, OD650). Format: cell-based. The note with it: STING agonist MSA-2 10 µM, incubated for 24 hours. As to the method:
10 µL of compound diluted with PBS/physiological saline was added to each well of a 96 well cell culture plate. The STING agonist was MSA-2, which was added to the counted cell suspension at a final concentration of 10 µM. For the control group without compounds, 10 µL of PBS/physiological saline containing 2% DMSO was added. 3 replicate wells were set in each group. THP1-Blue-ISG cells were counted and adjusted to a cell concentration of 4× 10^5/mL, and 190 µL of cells containing STING agonist were added to each well for incubation. Therefore, the final volume of each test well was 200 µL, the content of DMSO was 0.1%, and the final concentration of the compound tested was 10/3.3/1.1/0.4/0.13/0.04/0.013/0.004 µM, incubated for 24 hours. In addition, 190 µL of cells without STING agonist and 10 µL of physiological saline containing 2% DMSO were added to the blank group. 3 replicate wells were set in each group.
After 24 hours, 20 µL of culture medium was taken from each well and transferred to a new 96 well plate. 180 µL of chromogenic solution Quanti-Blue was added. The plate was placed in a 37 °C incubator. After 2 hours, the OD650 values were measured.
Result analysis: Inhibition rate (%) = (Con(OD650)−Treated(OD650))/Con(OD650) × 100% [formula]
(§1) The IC50 calculation of inhibitors was implemented using the Graphpad Prism 8 software's calculation method log (inhibitor) vs. response - Variable slope (four parameters), with a constrain interval of 0-100.

Assay [2] deals with DMXAA induced ISG gene expression in mouse RAW-Lucia cells. The assay is described as follows: Inhibition of DMXAA-induced ISG gene expression in mouse RAW-Lucia cells (QUANTI-Luc). The class given is cell-based. The note with it: STING agonist DMXAA 50 µM, incubated for 24 hours. On the procedure:
10 µL of compound diluted with PBS/physiological saline was added to each well of a 96 well cell culture plate. The STING agonist was DMXAA, which was added to the counted cell suspension at a final concentration of 50 µM. For the control group without compounds, 10 µL of PBS/physiological saline containing 2% DMSO was added. 3 replicate wells were set in each group. RAW-Lucia cells were counted and adjusted to a cell concentration of 4×10^5/mL, and […] of cells were added to each well for incubation. Therefore, the final volume of each test well was 200 µL, the content of DMSO was 0.1%, and the final concentration of the compound tested was 10/3.3/1.1/0.4/0.13/0.04/0.013/0.004 µM. The final concentration of STING agonist DMXAA was 50 µM. The mixture was incubated for 24 hours. In addition, 200 µL of culture medium was added to the blank group. 3 replicate wells were set in each group.
After 24 hours, 20 µL of culture medium was taken from each well and transferred to a new 96 well plate with photopermeable bottom. 50 µL of the luciferase detection reagent QUANTI-Luc™ was added, and the […] was immediately measured (avoid light).
Result analysis: Inhibition rate (%) = (Con(Lum)−Treated(Lum))/Con(Lum) × 100% [formula]
as §1

With `CC1(C)C(=O)N(Cc2ccccc2)c2cc(NC(=O)c3c[nH]c4ccccc34)ccc21` [C, reference compound], the 50% inhibitory concentration (IC50) in assay [1] turned out to be 1540 nM; in assay [2] it was 188 nM.

For `CC1(C)C(=O)N(CC2CC2)c2cc(C(=O)Nc3c[nH]c4ccccc34)ccc21` [Example I-78, 1-cyclopropylmethyl-N-(1H-indol-3-yl)-3,3-dimethyl-2-oxoindolin-6-carboxamide], the IC50 is 334 nM in assay [1] and 7.4 nM in assay [2].

Turning to `O=C(Nc1c[nH]c2ccccc12)c1ccc2c(c1)N(CC1CC1)C(=O)CS2` [Example I-62, 4-(cyclopropylmethyl)-N-(1H-indol-3-yl)-3-oxo-3,4-dihydro-2H-benzo[b][1,4]thiazin-6-carboxamide], the results for the IC50 in assay [1] and in assay [2] were 121 nM and 38 nM, respectively.

For `CC1(C)C(=O)N(Cc2ccsc2)c2cc(NC(=O)c3c[nH]c4ccccc34)ccc21` [B, reference compound], the IC50 in assay [1] was above 10000 nM; in assay [2] it was above 1000 nM.

`O=C(Nc1ccc2c(c1)N(Cc1ccccc1)C(=O)CS2)Nc1c[nH]c2ccccc12` [A, reference compound]: the IC50 was determined as 2300 nM in assay [1] and 161 nM in assay [2].

In the case of `CC1(C)C(=O)N(CC2CN(c3ccccc3)C2)c2cc(C(=O)Nc3c[nH]c4ccccc34)ccc21` [Example I-11, N-(1H-indol-3-yl)-3,3-dimethyl-2-oxo-1-((1-phenylazetidin-3-yl)methyl)indolin-6-carboxamide], the IC50 in assay [1] turned out to be 180 nM; in assay [2], 23 nM.

For `CC1(C)C(=O)N(Cc2ccccc2)c2cc(C(=O)Nc3c[nH]c4ccccc34)ccc21` [Example I-76, 1-benzyl-N-(1H-indol-3-yl)-3,3-dimethyl-2-oxoindolin-6-carboxamide], the values for the IC50 in assay [1] and in assay [2] were 235 nM and 2.24 nM, respectively.

As for `O=C(Nc1c[nH]c2ccccc12)c1ccc2c(c1)N(Cc1ccsc1)C(=O)CS2` [Example I-55, N-(1H-indol-3-yl)-3-oxo-4-(thien-3-ylmethyl)-3,4-dihydro-2H-benzothien[b][1,4]thiazin-6-carboxamide], the IC50 came to 56 nM in assay [1] and 80 nM in assay [2].

Turning to `CC1(C)C(=O)N(Cc2ccco2)c2cc(C(=O)Nc3c[nH]c4ccccc34)ccc21` [Example I-80, 1-(furan-2-ylmethyl)-N-(1H-indol-3-yl)-3,3-dimethyl-2-oxoindolin-6-carboxamide], the half-maximal inhibitory concentration (IC50) was 626 nM in assay [1] and 24 nM in assay [2].

`O=C(Nc1c[nH]c2ccccc12)c1cc2c(s1)SCC(=O)N2Cc1ccccc1` [Example I-6, 1-benzyl-N-(1H-indol-3-yl)-2-oxo-2,3-dihydro-1H-thieno[2,3-b][1,4]thiazin-6-carboxamide]: the IC50 in assay [1] was determined as 392 nM; in assay [2], 33 nM.

On to `CC1(C)C(=O)N(CC2CN(c3cc(F)cc(C(F)(F)F)c3)C2)c2cc(C(=O)Nc3c[nH]c4ccccc34)ccc21` [Example I-17], for which the IC50 in assay [1] was found to be 32 nM; in assay [2], 6.8 nM.

As to `CC1(C)C(=O)N(CC2CN(c3cc(Cl)cc(C(F)(F)F)c3)C2)c2cc(C(=O)Nc3c[nH]c4ccccc34)ccc21` [Example I-18], the 50% inhibitory concentration (IC50) in assay [1] worked out at 56 nM; in assay [2] it was 19 nM.

On to `COc1cccc(N2CC(CN3C(=O)C(C)(C)c4ccc(C(=O)Nc5c[nH]c6ccccc56)cc43)C2)c1` [Example I-15, N-(1H-indol-3-yl)-1-((1-3-methoxyphenylazetidin-3-yl)methyl)-3,3-dimethyl-2-oxoindolin-6-carboxamide], for which the concentration for half-maximal inhibition (IC50) in assay [1] came to 132 nM; in assay [2], 61 nM.

In assay [1], `CC1(C)C(=O)N(CC2CN(c3ccccc3)C2)c2cc(NC(=O)Nc3c[nH]c4ccccc34)ccc21` [Example I-12, 1-(3,3-dimethyl-2-oxo-1-((1-phenylazetidin-3-yl)methyl)indolin-6-yl)-3-(1H-indol-3-yl)urea] registered an IC50 of 375 nM.

For the compound `CC1(C)C(=O)N(CCc2ccccc2)c2cc(C(=O)Nc3c[nH]c4ccccc34)ccc21` [Example I-81, N-(1H-indol-3-yl)-3,3-dimethyl-2-oxo-1-phenethylindolin-6-carboxamide], the 50% inhibitory concentration (IC50) in assay [1] worked out at 237 nM; in assay [2], 0.42 nM.

Take `CC1(C)C(=O)N(CC2CN(c3ccsc3)C2)c2cc(C(=O)Nc3c[nH]c4ccccc34)ccc21` [Example I-20, N-(1H-indol-3-yl)-3,3-dimethyl-2-oxo-1-((1-(thien-3-yl)azetidin-3-yl)methyl)indolin-6-carboxamide]: the half-maximal inhibitory concentration (IC50) in assay [1] is 296 nM; in assay [2] it was 16 nM.

(Values after patent publication EP4748844A1, “AZETIDINE COMPOUND AND MEDICAL USE THEREOF” (SHANGHAI INSTITUTE OF MATERIA MEDICA, CHINESE ACADEMY OF …, priority 2023, dated 2025).)
